Data published in patent US20230219890A1, “BICYCLIC COMPOUNDS AND USE THEREOF” (Betta Pharmaceuticals Co.,Ltd, priority 2020, published 2023).

tested on: VEGFA (786-O cells); assay: VEGFA ELISA Assay (IC50); type: cell-based; conditions: 24 hours incubation, VEGFA in culture supernatant by ELISA, class symbols
Procedure: 786-O cells in exponential growth phase were seeded in 96-well plate, the cell concentration was 65,000 cells per milliliter of culture medium, 180 ul per well. Compounds were serial diluted to the indicated concentration, and 20 ul compound solutions of different concentrations were added to the corresponding cell wells. The final compound concentrations were as follows (nM): 1.5, 4.6, 13.7, 41.2, 123.5, 370.4, 1111.1, 3333.3, 10000. After 24 hours of incubation, the cell culture supernatant was taken, and the VEGFA concentration was determined using an ELISA kit (purchased from abcam). Finally, the reaction was terminated, and the light absorbance value of each well was measured using a microplate reader at a wavelength of […], and IC50 was calculated by GraphPad Prism. Cell Titer-Glo reagent was used to measure cell viability.

IC50 | Structure (SMILES)
1500 to 10000 nM | OC1c2c(C(F)(F)F)cn(Cc3cc(F)cc(Cl)c3)c2CCC1(F)F (stereo not drawn) [Example 29]
≤ 500 nM | O[C@H]1c2c(C(F)(F)F)c(Cl)n(-c3ccc(F)c(Cl)c3)c2CCC1(F)F [Example 107, (S)-2-chloro-1-(3-chloro-54-fluorophenyl)-5,5-difluoro-3-(trifluoromethyl)-4,5,6,7-tetrahydro-1H-indol-4-ol]

same assay, conditions: Homo sapiens, 786-0, 24 h, 24 hours incubation, VEGFA in culture supernatant by ELISA, class symbols

IC50 | Structure (SMILES)
≤ 500 nM | N#Cc1cc(-n2cc(C(F)(F)F)c3c2CCC(F)(F)[C@@H]3F)ccc1F (single isomer, unassigned) [Example 197]
500 to 1500 nM | N#Cc1cc(-n2cc(I)c3c2CCC(F)(F)C3O)ccc1F (stereo not drawn) [Example 5, 5-(5,5-difluoro-hydroxy-3-iodo-4,5,6,7-tetrahydro-1H-indol-1-yl)-2-fluorobenzonitrile]
500 to 1500 nM | O=C1c2c(C(F)(F)F)cn(-c3cc(F)cc(Cl)c3)c2CCC1(F)F [Example 6, 1-(3-chloro-5-fluorophenyl)-5,5-difluoro-3-(trifluoromethyl)-1,5,6,7-tetrahydro-4H-indol-4-one]
≤ 500 nM | N#Cc1ccc(-n2cc(C(F)(F)F)c3c2CCC(F)(F)C3O)cc1 (stereo not drawn) [Example 13, 4-(5,5-difluoro-4-hydroxy-3 (trifluoromethyl)-4,5,6,7-tetrahydro-1H-indol-1-yl)benzonitrile]
≤ 500 nM | OC1c2c(C(F)(F)F)cn(-c3cc(F)cc(C(F)(F)F)c3)c2CCC1(F)F (stereo not drawn) [Example 24]
500 to 1500 nM | N#Cc1cc(F)cc(-n2cc(C(F)(F)F)c3c2CCCC3O)c1 (stereo not drawn) [Example 41, 3-fluoro-5-(4-hydroxy-3-(trifluoromethyl)-4,5,6,7-tetrahydo-1H-indol-1-yl)benzonitrile]
500 to 1500 nM | Cn1cccc1-c1cn(-c2cc(F)cc(Cl)c2)c2c1C(O)C(F)(F)CC2 (stereo not drawn) [Example 51, 1-(3-chloro-5-fluorophenyl)-5,5-difluoro-3-(1-methyl-1H-pyrrol-2-yl)-4,5,6,7-tetrahydro-1H-indol-4-ol]
≤ 500 nM | OC1c2c(-c3ccco3)cn(-c3cc(F)cc(Cl)c3)c2CCC1(F)F (stereo not drawn) [Example 53, 1-(3-chloro-5-fluorophenyl)-5,5-difluoro-3-(furan-2-yl)-4,5,6,7-tetrahydro-1H-indol-4-ol]
500 to 1500 nM | N#Cc1cc(-n2cc(-c3cncs3)c3c2CCC(F)(F)C3O)ccc1F (stereo not drawn) [Example 54, 5-(5,5-difluoro-4-hydroxy-3-(thiazol-5-yl)-4,5,6,7-tetrahydro-1H-indol-1-yl)-2-fluorobenzonitrile]
≤ 500 nM | OC1c2c(C(F)(F)F)cc(-c3cc(F)cc(Cl)c3)n2CCC1F (stereo not drawn) [Example 68, 3-(3-chloro-5-fluorophenyl)-7-fluoro-1-(trifluoromethyl)-5,6,7,8-tetrahydroindolizin-8-ol]
≤ 500 nM | OC1c2c(C(F)(F)F)cc(-c3cc(F)cc(F)c3)n2CCC1(F)F (stereo not drawn) [Example 76, 3-(3,5-difluorophenyl)-7,7-difluoro-1-(trifluoromethyl)-5,6,7,8-tetrahydroindolizin-8-ol]
> 1500 nM | OC1c2c(C(F)(F)F)nn(-c3cc(F)cc(F)c3)c2CCC1(F)F (stereo not drawn) [Example 88, 1-(3,5-difluorophenyl)-5,5-difluoro-3-(trifluoromethyl)-4,5,6,7-tetrahydro-1H-indazol-4-ol]
> 1500 nM | OC1c2c(C(F)(F)F)nn(-c3cc(F)cc(Cl)c3)c2CCC1(F)F (stereo not drawn) [Example 90, 1-(3-chloro-5-fluorophenyl)-5,5-difluoro-3-(trifluoromethyl)-4,5,6,7-tetrahydro-1H-indazol-4-ol]
> 1500 nM | N#Cc1cc(F)cc(-n2nc(C(F)(F)F)c3c2CCC(F)(F)C3O)c1 (stereo not drawn) [Example 92]
> 1500 nM | CS(=O)(=O)c1nn(Cc2ccc(F)cc2)c2c1C(=O)CCC2 [Example 93, 1-(4-fluorobenzyl)-3-(methylsulfonyl)-1,5,6,7-tetrahydro-4H-indazol-4-one]
≤ 500 nM | N#Cc1cn(-c2cc(F)cc(Cl)c2)c2c1C(O)C(F)(F)CC2 (stereo not drawn) [Example 96, 1-(3-chloro-5-fluorophenyl)-5,5-difluoro-4-hydroxyl-4,5,6,7-tetrahydro-1H-indol-3-carbonitrile]
≤ 500 nM | OC1c2c(C(F)(F)F)cn(-c3cc(F)cc(Cl)c3)c2CCC1(F)F (stereo not drawn) [Example 97, 1-(3-chloro-5-fluorophenyl)-5,5-difluoro-3-(trifluoromethyl)-4,5,6,7-tetrahydro-1H-indol-4-ol]
≤ 500 nM | CC1(O)c2c(C(F)(F)F)cn(-c3ccc(F)c(C#N)c3)c2CCC1(F)F (stereo not drawn) [Example 100, 5-(5,5-difluoro-4-hydroxyl-4-methyl-3-(trifluoromethyl)-4,5,6,7-tetrahydro-1H-indol-1-yl)-2-fluorobenzonitrile]
≤ 500 nM | OC1CCCc2c1c(C(F)(F)F)cn2-c1ccc(F)c(C(F)F)c1 (stereo not drawn) [Example 108, 1-(3-(difluoromethyl)-4-fluorophenyl)-3-(trifluoromethyl)-4,5,6,7-tetrahydro-1H-indol-4-ol]
≤ 500 nM | CS(=O)(=O)c1cn(-c2cc(F)cc(Cl)c2)c2c1C(O)C(F)(F)CC2 (stereo not drawn) [Example 109, 1-(3-chloro-5-fluorophenyl)-5,5-difluoro-3-(methylsulfonyl)-4,5,6,7-tetrahydro-1H-indol-4-ol]
≤ 500 nM | OC1c2c(C(F)(F)F)cn(-c3ccc(Cl)cc3)c2CC(F)C1F (stereo not drawn) [Example 130, l-(4-chlorophenyl)-5,6-difluoro-3-(trifluoromethyl)-4,5,6,7-tetrahydro-1H-indol-4-ol]
≤ 500 nM | OC1c2c(C(F)(F)F)cn(-c3cncc(F)c3)c2CC(F)C1F (stereo not drawn) [Example 132, 5,6-difluoro-1-(5-fluoropyridin-3-yl)-3-(trifluoromethyl)-4,5,6,7-tetranydro-1H-indol-4-ol]
500 to 1500 nM | OC1c2c(C(F)(F)F)cn(-c3cncc(F)c3)c2CCC1(F)F (stereo not drawn) [Example 133]
≤ 500 nM | CS(=O)(=O)c1cn(-c2ccc(F)c(C#N)c2)c2c1[C@H](O)C(F)(F)CC2 [Example 134, (S)-5-(5,5-difluoro-4-hydroxy-3-(methylsulfonyl)-4,5,6,7-tetrahydro-1H-indol-1-yl)-2-fluorobenzonitrile]
≤ 500 nM | N#Cc1cc(F)cc(-n2cc(C(F)(F)F)c3c2CCC(F)C3O)c1 (stereo not drawn) [Example 139, 3-fluoro-5-(5-fluoro-4-hydroxy-3-(trifluoromethyl)-4,5,6,7-tetrahydro-1H-indol-1-yl)benzonitrile]
≤ 500 nM | OC1c2c(C(F)(F)F)cn(-c3cc(F)cc(Cl)c3)c2C(F)CC1F (stereo not drawn) [Example 141]

same assay, conditions: Homo sapiens, 786-0, 24 h, 24 hours incubation, VEGFA in culture supernatant by ELISA, numeric values

IC50 | Structure (SMILES)
55.4 nM | OC1c2c(C(F)(F)F)cn(-c3cc(F)cc(Br)c3)c2CCC1(F)F (stereo not drawn) [Example 22]
13.8 nM | OC1c2c(C(F)(F)F)cc(-c3cc(F)cc(Cl)c3)n2CCC1(F)F (stereo not drawn) [Example 71, 3-(3-chloro-5-fluoropheny1)-7,7-difluoro-1-(trifluoromethyl)-5,6,7,8-tetrahydroindolizin-8-ol]
16.2 nM | N#Cc1cc(F)cc(-c2cc(C(F)(F)F)c3n2CCC(F)(F)C3O)c1 (stereo not drawn) [Example 77, 3-(7,7-difluoro-8-hydroxy-1-(trifluoromethyl)-5,6,7,8-tetrahydroindolizin-3-yl)-5-fluorobenzonitrile]
42.6 nM | N#Cc1ccc(-n2cc(C(F)(F)F)c3c2CCC(F)(F)C3O)cc1F (stereo not drawn) [Example 122, 4-(5,5-difluoro-4-hydroxy-3-(trifluoromethyl)-4,5,6,7-tetrahydro-1H-indol-1-yl)-2-fluorobenzonitrile]
42.1 nM | N#Cc1cc(-n2cc(C(F)(F)F)c3c2CCC(F)(F)C3O)ccc1Cl (stereo not drawn) [Example 137]
